Measured values published in ChEMBL document CHEMBL5120959, “Pyrrospirones K-Q, Decahydrofluorene-Class Alkaloids from the Marine-Derived Fungus Penicillium sp. SCSIO 41512” (J Nat Prod, 2022).
≈ marks a conversion by molar mass, not a printed value.

Experiments:
[1] = test system: Bacillus amyloliquefaciens; experiment: Antibacterial activity against Bacillus amyloliquefaciens GDMCC 60233 assessed as reduction in microbial growth after 12 hrs by microbroth dilution method; type: functional
Escherichia coli [2] = experiment: microbe, parasite or virus in culture; type: functional; details: ATCC 25922, time 12 hrs
Description: Antibacterial activity against Escherichia coli ATCC 25922 assessed as reduction in microbial growth after 12 hrs by microbroth dilution method

[3] = biological target: T1, Tyrosine-protein phosphatase non-receptor type 2 (Homo sapiens, UniProt P17706); experiment: Inhibition of human TCPTP
T1 sequence (P17706 whole entry): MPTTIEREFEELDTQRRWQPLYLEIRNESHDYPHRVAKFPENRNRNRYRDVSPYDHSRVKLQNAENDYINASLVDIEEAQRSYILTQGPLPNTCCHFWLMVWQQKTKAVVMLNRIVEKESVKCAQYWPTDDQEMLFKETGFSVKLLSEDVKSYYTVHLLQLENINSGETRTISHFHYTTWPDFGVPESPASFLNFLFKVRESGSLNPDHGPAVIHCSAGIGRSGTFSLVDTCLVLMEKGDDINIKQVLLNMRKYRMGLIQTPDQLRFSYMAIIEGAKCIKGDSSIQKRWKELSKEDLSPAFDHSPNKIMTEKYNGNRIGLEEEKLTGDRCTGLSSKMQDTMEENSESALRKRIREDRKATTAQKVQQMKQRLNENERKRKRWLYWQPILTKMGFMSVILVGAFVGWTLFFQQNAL

NCI-H1975 = experiment: Cytotoxicity against human NCI-H1975 cells assessed as reduction in cell viability after 24 hrs by CCK8 assay; type: functional, cell-based; details: NCI-H1975, 24 h
[4] = biological target: T2, Receptor-type tyrosine-protein phosphatase C (Homo sapiens, UniProt P08575); experiment: Inhibition of human CD45
T2 sequence (P08575 whole entry): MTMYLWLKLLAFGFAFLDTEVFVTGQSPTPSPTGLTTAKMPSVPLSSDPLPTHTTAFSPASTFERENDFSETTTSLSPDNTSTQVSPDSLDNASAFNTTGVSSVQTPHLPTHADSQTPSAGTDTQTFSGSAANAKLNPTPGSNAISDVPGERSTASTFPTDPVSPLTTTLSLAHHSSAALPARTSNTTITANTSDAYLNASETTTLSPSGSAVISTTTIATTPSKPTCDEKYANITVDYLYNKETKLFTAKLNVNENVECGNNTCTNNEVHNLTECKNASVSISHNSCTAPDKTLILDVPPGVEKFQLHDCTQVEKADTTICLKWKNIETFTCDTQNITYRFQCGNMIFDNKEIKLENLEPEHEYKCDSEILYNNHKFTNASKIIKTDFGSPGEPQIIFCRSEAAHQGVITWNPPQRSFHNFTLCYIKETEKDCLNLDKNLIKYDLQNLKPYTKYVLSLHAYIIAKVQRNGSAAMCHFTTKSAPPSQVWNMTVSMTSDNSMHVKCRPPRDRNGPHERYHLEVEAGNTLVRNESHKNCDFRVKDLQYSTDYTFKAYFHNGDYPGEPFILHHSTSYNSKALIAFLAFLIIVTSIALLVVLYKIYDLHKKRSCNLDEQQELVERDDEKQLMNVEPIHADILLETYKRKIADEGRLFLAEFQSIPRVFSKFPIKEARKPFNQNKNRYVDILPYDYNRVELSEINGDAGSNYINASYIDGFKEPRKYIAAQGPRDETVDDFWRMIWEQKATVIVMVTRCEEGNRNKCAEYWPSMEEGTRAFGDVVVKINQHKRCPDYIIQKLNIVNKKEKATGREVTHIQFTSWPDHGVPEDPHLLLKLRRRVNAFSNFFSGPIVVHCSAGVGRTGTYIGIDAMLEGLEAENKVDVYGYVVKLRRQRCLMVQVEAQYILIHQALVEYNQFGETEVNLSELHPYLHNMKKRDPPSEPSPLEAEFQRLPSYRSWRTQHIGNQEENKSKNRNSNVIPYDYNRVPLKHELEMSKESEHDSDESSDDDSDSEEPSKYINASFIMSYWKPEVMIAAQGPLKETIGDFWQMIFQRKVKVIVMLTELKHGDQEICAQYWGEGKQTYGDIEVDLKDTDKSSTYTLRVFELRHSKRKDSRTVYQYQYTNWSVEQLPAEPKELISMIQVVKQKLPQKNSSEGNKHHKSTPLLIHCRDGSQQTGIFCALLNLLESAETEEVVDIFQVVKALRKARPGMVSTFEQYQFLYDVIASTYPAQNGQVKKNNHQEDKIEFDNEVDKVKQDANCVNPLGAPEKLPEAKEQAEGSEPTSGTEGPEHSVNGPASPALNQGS

[5] = biological target: T3, Tyrosine-protein phosphatase non-receptor type 1 (Homo sapiens, UniProt P18031); experiment: Inhibition of human PTP1B
T3 sequence (P18031 whole entry): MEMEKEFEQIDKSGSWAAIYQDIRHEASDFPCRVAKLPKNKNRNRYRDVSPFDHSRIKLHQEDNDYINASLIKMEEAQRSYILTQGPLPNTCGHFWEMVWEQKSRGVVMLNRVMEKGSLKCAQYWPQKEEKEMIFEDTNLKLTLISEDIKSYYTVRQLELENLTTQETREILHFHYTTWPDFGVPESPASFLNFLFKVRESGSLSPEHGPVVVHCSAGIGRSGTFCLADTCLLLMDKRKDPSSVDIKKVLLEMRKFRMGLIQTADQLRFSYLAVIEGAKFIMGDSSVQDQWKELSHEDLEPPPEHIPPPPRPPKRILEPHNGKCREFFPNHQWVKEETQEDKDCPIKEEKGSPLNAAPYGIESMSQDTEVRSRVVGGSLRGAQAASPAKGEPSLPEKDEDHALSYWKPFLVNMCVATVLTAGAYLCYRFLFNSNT

Bacillus subtilis = experiment: Antibacterial activity against Bacillus subtilis BS01 assessed as reduction in microbial growth after 12 hrs by microbroth dilution method; type: functional
Staphylococcus aureus [6] = experiment: Antibacterial activity against methicillin-resistant Staphylococcus aureus assessed as reduction in microbial growth after 12 hrs by microbroth dilution method; type: functional
Staphylococcus aureus [7] = experiment: Antibacterial activity against Staphylococcus aureus ATCC 6538 assessed as reduction in microbial growth after 12 hrs by microbroth dilution method; type: functional
Streptococcus agalactiae = experiment: Antibacterial activity against Streptococcus agalactiae ATCC 13813 assessed as reduction in microbial growth after 12 hrs by microbroth dilution method; type: functional
[8] = biological target: Receptor-type tyrosine-protein phosphatase F (Homo sapiens, UniProt P10586); experiment: Inhibition of human LAR
Sequence of Receptor-type tyrosine-protein phosphatase F (P10586 whole entry): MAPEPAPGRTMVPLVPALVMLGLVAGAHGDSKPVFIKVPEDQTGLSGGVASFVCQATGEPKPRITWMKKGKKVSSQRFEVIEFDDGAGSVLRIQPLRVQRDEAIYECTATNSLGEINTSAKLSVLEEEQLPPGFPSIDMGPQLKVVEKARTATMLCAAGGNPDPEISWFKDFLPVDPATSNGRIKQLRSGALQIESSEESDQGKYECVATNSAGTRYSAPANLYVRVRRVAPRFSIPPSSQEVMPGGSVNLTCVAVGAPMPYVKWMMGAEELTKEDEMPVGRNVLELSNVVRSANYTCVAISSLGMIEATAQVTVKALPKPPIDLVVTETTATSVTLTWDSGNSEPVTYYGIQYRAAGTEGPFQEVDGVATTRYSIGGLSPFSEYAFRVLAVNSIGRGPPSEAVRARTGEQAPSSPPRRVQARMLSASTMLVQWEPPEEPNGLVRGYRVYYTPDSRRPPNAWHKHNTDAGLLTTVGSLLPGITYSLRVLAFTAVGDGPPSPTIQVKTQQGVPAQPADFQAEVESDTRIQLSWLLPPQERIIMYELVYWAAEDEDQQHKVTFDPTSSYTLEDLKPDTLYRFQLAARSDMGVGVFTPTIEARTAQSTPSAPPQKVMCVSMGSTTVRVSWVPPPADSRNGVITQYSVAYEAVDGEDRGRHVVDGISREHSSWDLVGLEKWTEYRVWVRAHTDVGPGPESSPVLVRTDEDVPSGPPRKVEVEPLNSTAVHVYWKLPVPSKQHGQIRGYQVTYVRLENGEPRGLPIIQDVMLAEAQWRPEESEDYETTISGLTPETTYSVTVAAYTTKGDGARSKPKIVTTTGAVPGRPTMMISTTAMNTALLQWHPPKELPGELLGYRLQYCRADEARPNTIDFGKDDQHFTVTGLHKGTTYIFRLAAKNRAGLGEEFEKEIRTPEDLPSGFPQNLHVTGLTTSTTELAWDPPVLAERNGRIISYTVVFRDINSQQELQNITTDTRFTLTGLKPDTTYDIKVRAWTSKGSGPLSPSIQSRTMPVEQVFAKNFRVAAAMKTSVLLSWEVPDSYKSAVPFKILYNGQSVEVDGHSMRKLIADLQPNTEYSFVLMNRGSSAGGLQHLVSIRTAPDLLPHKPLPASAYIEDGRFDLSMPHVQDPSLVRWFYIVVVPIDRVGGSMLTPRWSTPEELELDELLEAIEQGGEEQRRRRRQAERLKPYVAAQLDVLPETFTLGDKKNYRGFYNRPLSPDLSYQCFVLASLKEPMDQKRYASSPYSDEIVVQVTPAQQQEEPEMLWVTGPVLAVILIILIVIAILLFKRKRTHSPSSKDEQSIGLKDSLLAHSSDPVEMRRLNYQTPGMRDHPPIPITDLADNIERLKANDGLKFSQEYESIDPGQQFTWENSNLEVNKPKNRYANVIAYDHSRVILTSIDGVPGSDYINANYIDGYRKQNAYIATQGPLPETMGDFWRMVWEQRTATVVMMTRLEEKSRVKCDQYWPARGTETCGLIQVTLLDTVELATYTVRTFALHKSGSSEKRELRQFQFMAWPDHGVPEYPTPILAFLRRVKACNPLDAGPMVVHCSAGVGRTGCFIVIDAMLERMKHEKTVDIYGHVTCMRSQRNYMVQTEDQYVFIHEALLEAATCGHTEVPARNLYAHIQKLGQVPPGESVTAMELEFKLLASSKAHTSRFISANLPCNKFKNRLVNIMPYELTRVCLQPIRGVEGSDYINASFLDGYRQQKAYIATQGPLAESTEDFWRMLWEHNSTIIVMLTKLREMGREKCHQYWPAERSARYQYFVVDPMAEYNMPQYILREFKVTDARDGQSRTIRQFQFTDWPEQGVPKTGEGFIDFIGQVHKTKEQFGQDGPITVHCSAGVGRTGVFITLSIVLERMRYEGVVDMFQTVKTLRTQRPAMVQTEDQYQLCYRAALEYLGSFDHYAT

[9] = biological target: Tyrosine-protein phosphatase non-receptor type 6 (Homo sapiens, UniProt P29350); experiment: Inhibition of human SHP1
Sequence of Tyrosine-protein phosphatase non-receptor type 6 (P29350 whole entry): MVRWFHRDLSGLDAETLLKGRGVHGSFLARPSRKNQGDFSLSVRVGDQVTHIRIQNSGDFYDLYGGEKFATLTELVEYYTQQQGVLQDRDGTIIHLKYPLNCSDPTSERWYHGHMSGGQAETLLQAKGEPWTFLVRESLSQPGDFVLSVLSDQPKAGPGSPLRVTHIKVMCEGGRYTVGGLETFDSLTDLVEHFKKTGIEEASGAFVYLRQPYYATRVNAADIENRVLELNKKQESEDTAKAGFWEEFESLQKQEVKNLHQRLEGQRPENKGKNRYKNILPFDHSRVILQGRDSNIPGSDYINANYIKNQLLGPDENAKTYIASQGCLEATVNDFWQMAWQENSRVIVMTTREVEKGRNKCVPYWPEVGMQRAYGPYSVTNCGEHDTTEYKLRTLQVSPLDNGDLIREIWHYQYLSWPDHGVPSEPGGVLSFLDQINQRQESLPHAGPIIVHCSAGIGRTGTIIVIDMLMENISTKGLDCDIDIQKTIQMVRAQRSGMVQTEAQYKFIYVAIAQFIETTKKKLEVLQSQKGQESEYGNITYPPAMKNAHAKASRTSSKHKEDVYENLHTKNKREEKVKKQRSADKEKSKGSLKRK

Staphylococcus aureus [10] = experiment: Antibacterial activity against methicillin-resistant Staphylococcus aureus assessed as reduction in microbial growth after 12 hrs by broth microdilution method; type: functional
Escherichia coli [11] = experiment: Antibacterial activity against Escherichia coli assessed as reduction in microbial growth after 12 hrs by broth microdilution method; type: functional

Row | SMILES | MIC [1] | MIC (Escherichia coli [2]) | IC50 [3] | IC50 (NCI-H1975) | IC50 [4] | IC50 [5] | MIC (Bacillus subtilis) | MIC (Staphylococcus aureus [6]) | MIC (Staphylococcus aureus [7]) | MIC (Streptococcus agalactiae) | IC50 [8] | IC50 [9] | MIC (Staphylococcus aureus [10]) | MIC (Escherichia coli [11])
1 | C=C[C@@]1(C)C=C(C)[C@@H]2[C@@H]3[C@H](Oc4ccc(cc4)C[C@@H]4C(=O)NC(=O)[C@@H]4C(=O)[C@H]31)[C@@H]1[C@@H](C)C[C@@H](C)C[C@]12C | 50 µg/mL | 50 µg/mL (≈ 99.7 µM) | 14 µM | 75 µM | 8.1 µM | 25 µM | 20 µg/mL | 50 µg/mL | 100 µg/mL | 100 µg/mL | > 200 µM |  |  | 
2 | CO[C@@H]1C2Cc3ccc(cc3)O[C@H]3[C@H]4[C@@H](C(C)=C[C@]5(C)CC[C@@]1(C(=O)N2)C(=O)[C@H]45)[C@]1(C)C[C@H](C)C[C@H](C)[C@@H]31 | > 100 µg/mL | > 100 µg/mL |  |  |  |  | > 100 µg/mL | > 100 µg/mL | > 100 µg/mL | > 100 µg/mL |  |  |  | 
3 | CO[C@@]12Cc3ccc(cc3)O[C@H]3[C@@H]4[C@H]5C(=O)[C@](C[C@H](O)OO[C@@]5(C)[C@H]5O[C@@]5(C)[C@H]4[C@]4(C)C[C@H](C)C[C@H](C)[C@@H]34)(C1)C(=O)N2 | 50 µg/mL | 50 µg/mL (≈ 86 µM) | > 200 µM | > 80 µM | > 200 µM | > 200 µM | 50 µg/mL | 50 µg/mL | 50 µg/mL | 50 µg/mL | > 200 µM | > 200 µM |  | 
4 | CC(=O)[C@@H]1[C@@H]2[C@H](Oc3ccc(cc3)C[C@]3(O)C[C@]4(C[C@@H](O)[C@](C)(C=O)[C@@H]2C4=O)C(=O)N3)[C@@H]2[C@@H](C)C[C@@H](C)C[C@]21C | 100 µg/mL | 100 µg/mL (≈ 181 µM) | > 200 µM | > 80 µM | > 200 µM | > 200 µM | 100 µg/mL | > 100 µg/mL | > 100 µg/mL | > 100 µg/mL | > 200 µM | > 200 µM |  | 
5 | CO[C@@]12Cc3ccc(cc3)O[C@H]3[C@H]([C@H]4C(=O)[C@](C[C@@H](O)[C@]4(C)C=O)(C1)C(=O)N2)[C@@H](C(C)=O)[C@]1(C)C[C@H](C)C[C@H](C)[C@@H]31 | 100 µg/mL | 100 µg/mL (≈ 177 µM) | 130 µM |  | > 200 µM | 58 µM | 100 µg/mL | > 100 µg/mL | > 100 µg/mL | > 100 µg/mL | > 200 µM | 100 µM |  | 
6 | CC1=C[C@@]2(C)[C@@H]3C(=O)[C@@]4(C[C@@H]2O)C(=O)NC(Cc2ccc(cc2)O[C@H]2[C@H]3[C@@H]1[C@]1(C)C[C@H](C)C[C@H](C)[C@@H]21)[C@H]4O | 20 µg/mL | 5 µg/mL (≈ 9.62 µM) | > 200 µM |  | > 200 µM | 100 µM | 10 µg/mL | 10 µg/mL | 10 µg/mL | 10 µg/mL | > 200 µM | 200 µM | 2 µg/mL | 2 µg/mL
7 | C[C@@H]1C[C@H](C)[C@H]2[C@H]3Oc4ccc(cc4)C[C@]4(O)C/C(=C(/O)[C@H]5[C@H](C)[C@H]6O[C@@]6(C)[C@H]([C@H]35)[C@]2(C)C1)C(=O)N4 | 20 µg/mL | 20 µg/mL (≈ 40.5 µM) |  |  |  |  | 20 µg/mL | 50 µg/mL | 50 µg/mL | 50 µg/mL |  |  |  | 
